Test results from patent publication EP4509511A1, “SUBSTITUTED SPIRO-ISOXAZOLINYL LACTAMS, SALTS THEREOF AND THEIR USE AS HERBICIDALLY ACTIVE SUBSTANCES” (Bayer Aktiengesellschaft, priority 2023, dated 2025).

Columns and labels:
ECHCG [1] = assay: Herbicidal pre-emergence action - Part I; assay type: in vivo, Echinochloa crus-galli; conditions: visual grading after ca. 3 weeks vs untreated controls
Procedure, shortened: (§1)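 Weed seeds sown in sandy loam pots (one mono- and one dicot species per pot) and covered with soil; compounds as WP or EC applied to covering soil surface as aqueous suspension/emulsion with 0.5% additive at 600 l water/ha, rates 1280 g/ha or below. Greenhouse; visual damage rated after ca. 3 weeks vs untreated (0–100%).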

LOLRI [2] = assay: Herbicidal pre-emergence action - Part I; assay type: in vivo, Lolium rigidum; conditions: visual grading after ca. 3 weeks vs untreated controls
Source text: (§2) Seeds of mono- and dicotyledonous weed plants were sown in plastic pots (double sowings with one species of mono- and one species of dicotyledonous weed plants per pot), in sandy loam, and covered with soil. The compounds according to the invention, formulated in the form of wettable powders (WP) or as emulsifiable concentrates (EC), were applied to the surface of the covering soil as aqueous suspension or emulsion, with the addition of 0.5% of an additive, at an application rate of 600 1 of water per hectare (converted). Following treatment, the pots were placed in a greenhouse and kept under optimum growth conditions for the test plants. The visual grading of the damage to the test plants was carried out after ca. 3 weeks in comparison to untreated controls (herbicidaleffectinpercent(%):100%effect=plantshavediedoff,0%effect=ascontrolplants). [formula]
(§3) Tables A1 to A12, below, show the effects of selected compounds of the general formula (I) according to table 1 on various harmful plants and an application rate corresponding to 1280 g/ha or below obtained by the experimental procedure mentioned above. Table A1: pre-emergence activity at 1280g/ha against ABUTH in %

MATIN [3] = assay: Herbicidal pre-emergence action - Part I; assay type: in vivo, Matricaria inodora; conditions: visual grading after ca. 3 weeks vs untreated controls
Source text: as §2, §3

SETVI [4] = assay: Herbicidal pre-emergence action - Part I; assay type: in vivo, Setaria viridis; conditions: visual grading after ca. 3 weeks vs untreated controls
Source text: as §2, §3

STEME [5] = assay: Herbicidal pre-emergence action - Part I; assay type: in vivo, Stellaria media; conditions: visual grading after ca. 3 weeks vs untreated controls
Procedure, shortened: as §1

POAAN [6] = assay: Herbicidal pre-emergence action - Part I; assay type: in vivo, Poa annua; conditions: visual grading after ca. 3 weeks vs untreated controls
Source text: as §2, §3

AMARE [7] = assay: Herbicidal pre-emergence action - Part I; assay type: in vivo, Amaranthus retroflexus; conditions: visual grading after ca. 3 weeks vs untreated controls
Procedure, shortened: as §1

KCHSC [8] = assay: Herbicidal pre-emergence action - Part I; assay type: in vivo, Kochia scoparia
Source text: as §2, §3

DIGSA [9] = assay: Herbicidal pre-emergence action - Part I; assay type: in vivo, Digitaria sanguinalis; conditions: visual grading after ca. 3 weeks vs untreated controls
Source text: as §2, §3

ABUTH = assay: Herbicidal post-emergence action - Part I; assay type: in vivo, Abutilon theophrasti; conditions: one-leaf stage, rated visually after about 3 weeks vs untreated controls
Experimental: (§4) Seeds of mono- and dicotyledonous weed plants were placed in plastic pots in sandy loam soil (doubly sown with in each case one species of mono- or dicotyledonous weed plants per pot), covered with soil and cultivated in a greenhouse under controlled growth conditions. 2 to 3 weeks after sowing, the test plants were treated at the one-leaf stage. The compounds of the invention, formulated in the form of wettable powders (WP) or as emulsion concentrates (EC), were applied onto the green parts of the plants as aqueous suspension or emulsion with addition of 0.5% additive at a water application rate of 600 liters per hectare (converted). After the test plants had been kept in the greenhouse under optimum growth conditions for about 3 weeks, the activity of the preparations was rated visually in comparison to untreated controls. For example, 100% activity = the plants have died, 0% activity = like control plants. Tables B1 to B12, below, show the effects of selected compounds of the general formula (I) according to table 1 on various harmful plants and an application rate corresponding to 1280 g/ha or below obtained by the experimental procedure mentioned above. Table B1a: post-emergence activity at 1280g/ha against ABUTH in %

ECHCG [10] = assay: Herbicidal post-emergence action - Part I; assay type: in vivo, Echinochloa crus-galli; conditions: 1280 g/ha, one-leaf stage, rated visually after about 3 weeks vs untreated controls
Experimental: as §4

MATIN [11] = assay: Herbicidal post-emergence action - Part I; assay type: in vivo, Matricaria inodora; conditions: 1280 g/ha, one-leaf stage, rated visually after about 3 weeks vs untreated controls
Experimental: as §4

SETVI [12] = assay: Herbicidal post-emergence action - Part I; assay type: in vivo, Setaria viridis; conditions: one-leaf stage, rated visually after about 3 weeks vs untreated controls
Experimental: as §4

STEME [13] = assay: Herbicidal post-emergence action - Part I; assay type: in vivo, Stellaria media; conditions: one-leaf stage, rated visually after about 3 weeks vs untreated controls
Procedure, shortened: (§5)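 Activity was scored visually as % damage (100% = dead, 0% = like untreated) about 3 weeks after treatment. Plants at the one-leaf stage, 2-3 weeks old, were sprayed with WP/EC formulations plus 0.5% additive (600 L/ha water, up to 1280 g/ha). Plants were grown in sandy loam in a greenhouse.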

POAAN [14] = assay: Herbicidal post-emergence action - Part I; assay type: in vivo, Poa annua; conditions: one-leaf stage, rated visually after about 3 weeks vs untreated controls
Experimental: as §4

AMARE [15] = assay: Herbicidal post-emergence action - Part I; assay type: in vivo, Amaranthus retroflexus; conditions: one-leaf stage, rated visually after about 3 weeks vs untreated controls
Procedure, shortened: as §5

ALOMY [16] = assay: Herbicidal post-emergence action - Part I; assay type: in vivo, Alopecurus myosuroides; conditions: one-leaf stage, rated visually after about 3 weeks vs untreated controls
Experimental: as §4

KCHSC [17] = assay: Herbicidal post-emergence action - Part I; assay type: in vivo, Kochia scoparia; conditions: one-leaf stage, rated visually after about 3 weeks vs untreated controls
Procedure, shortened: as §5

VERPE = assay: Herbicidal post-emergence action - Part I; assay type: in vivo, Veronica persica; conditions: one-leaf stage, rated visually after about 3 weeks vs untreated controls
Procedure, shortened: as §5

ALOMY [18] = assay: Herbicidal pre-emergence action - Part I; assay type: in vivo, Alopecurus myosuroides; conditions: visual grading after ca. 3 weeks vs untreated controls
Source text: as §2, §3

LOLRI [19] = assay: Herbicidal post-emergence action - Part I; assay type: in vivo, Lolium rigidum; conditions: one-leaf stage, rated visually after about 3 weeks vs untreated controls
Experimental: as §4

DIGSA [20] = assay: Herbicidal post-emergence action - Part I; assay type: in vivo, Digitaria sanguinalis; conditions: 1280 g/ha, one-leaf stage, rated visually after about 3 weeks vs untreated controls
Experimental: as §4

[21] = Table A10a, 1280 g/ha, visual grading after ca. 3 weeks vs untreated controls

SMILES	pre-emergence activity at 320g/ha against ECHCG in % (ECHCG [1]) [%]	pre-emergence activity at 1280g/ha against ECHCG in % (ECHCG [1]) [%]	pre-emergence activity at 1280g/ha against LOLRI in % (LOLRI [2]) [%]	pre-emergence activity at 320g/ha against MATIN in % (MATIN [3]) [%]	pre-emergence activity at 1280g/ha against MATIN in % (MATIN [3]) [%]	pre-emergence activity at 1280g/ha and against SETVI in % (SETVI [4]) [%]	pre-emergence activity at 320g/ha against STEME in % (STEME [5]) [%]	pre-emergence activity at 1280g/ha against STEME in % (STEME [5]) [%]	pre-emergence activity at 320g/ha and against POAAN in % (POAAN [6]) [%]	pre-emergence activity at 1280g/ha and against POAAN in % (POAAN [6]) [%]	pre-emergence activity at 1280g/ha against AMARE in % (AMARE [7]) [%]	pre-emergence activity at 1280g/ha against KCHSC in % (KCHSC [8]; [21]) [%]	pre-emergence activity at 1280g/ha against DIGSA in % (DIGSA [9]) [%]	post-emergence activity at 1280g/ha against ECHCG in % (ECHCG [10]) [%]	post-emergence activity at 1280g/ha against SETVI in % (SETVI [12]) [%]	post-emergence activity at 1280g/ha against STEME in % (STEME [13]) [%]	post-emergence activity at 1280g/ha against AMARE in % (AMARE [15]) [%]	post-emergence activity at 1280g/ha against KCHSC in % (KCHSC [17]) [%]	post-emergence activity at 1280g/ha against VERPE in % (VERPE) [%]	other results
Cc1ccsc1C1=NOC2(CCCN(Cc3ccccc3F)C2=O)C1 (racemic) [Compound I-1, 7-(2-Fluorobenzyl)-3-(3-methyl-2-thienyl)-1-oxa-2,7-diazaspiro[4.5]dec-2-en-6-one]	100	100	90	90	100	100	90	90	100	100	90	90	100	90	90	90	90	90	90	pre-emergence activity at 320g/ha and against SETVI in % (SETVI [4]; 320 g/ha): 100%; pre-emergence activity at 80g/ha against STEME in % (STEME [5]; 80 g/ha): 90%; pre-emergence activity at 320g/ha against AMARE in % (AMARE [7]; 320 g/ha): 90%; pre-emergence activity at 1280g/ha against KCHSC in % (KCHSC [8]; Table A10b, title 1280g/ha, application rate column prints 320 g/ha, visual grading after ca. 3 weeks vs untreated controls): 90%; post-emergence activity at 320g/ha against ABUTH in % (ABUTH; 320 g/ha): 90%; post-emergence activity at 1280g/ha against ABUTH in % (ABUTH; 1280 g/ha): 90%; post-emergence activity at 1280g/ha against MATIN in % (MATIN [11]): 90%; post-emergence activity at 320g/ha against SETVI in % (SETVI [12]; 320 g/ha): 90%; post-emergence activity at 320g/ha against STEME in % (STEME [13]; 320 g/ha): 90%; post-emergence activity at 80g/ha against POAAN in % (POAAN [14]; 80 g/ha): 90%; post-emergence activity at 320g/ha against POAAN in % (POAAN [14]; 320 g/ha): 90%; post-emergence activity at 1280g/ha against POAAN in % (POAAN [14]; 1280 g/ha): 90%; post-emergence activity at 1280g/ha against ALOMY in % (ALOMY [16]): 90%; post-emergence activity at 320g/ha against KCHSC in % (KCHSC [17]; 320 g/ha): 90%; post-emergence activity at 320g/ha against VERPE in % (VERPE; 320 g/ha): 90%
N#Cc1ncccc1C1=NOC2(CCN(Cc3ccccc3F)C2=O)C1 (racemic) [Compound I-35]	90	100	90	90	90	100	90	90	100	100	90	90	100	90	90	90	90	90	90	pre-emergence activity at 320g/ha against LOLRI in % (LOLRI [2]; 320 g/ha): 90%; pre-emergence activity at 1280g/ha against ALOMY in % (ALOMY [18]): 90%; pre-emergence activity at 1280g/ha against KCHSC in % (KCHSC [8]; 1280 g/ha, 504 h): 90%; pre-emergence activity at 320g/ha against DIGSA in % (DIGSA [9]; 320 g/ha): 100%; post-emergence activity at 1280g/ha against LOLRI in % (LOLRI [19]): 90%; post-emergence activity at 320g/ha against AMARE in % (AMARE [15]; 320 g/ha): 90%; post-emergence activity at 1280g/ha against DIGSA in % (DIGSA [20]): 90%
